The text below walks through data of patent US10112944B2, “Heterocyclic compounds useful as inhibitors of TNF” (BRISTOL-MYERS SQUIBB COMPANY, priority 2015, dated 2018).

Bounds are passed on as bounds.

A word on the IC50: it is the concentration needed to halve the response being measured.

Chain of TNFα (P01375 77-233): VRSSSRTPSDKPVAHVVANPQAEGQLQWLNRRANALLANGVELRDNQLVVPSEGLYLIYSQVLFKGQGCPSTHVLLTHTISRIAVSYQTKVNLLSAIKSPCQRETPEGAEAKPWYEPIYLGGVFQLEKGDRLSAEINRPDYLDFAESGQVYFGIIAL

For the assay, the target named is TNFα (Homo sapiens (Human), UniProt P01375). Nature of the assay: TNF induced HEK-Blue assay. The assay is classed as cell-based. The conditions noted are these: HEK-Blue-CD40L cells, TNFα 0.5 ng/ml, NF-κB-driven secreted alkaline phosphatase reporter, 18 h. The procedure:
TNF or CD40L-Induced HEK-Blue Assay
Test compounds serially diluted in DMSO were plated in an assay plate (Labcyte, Cat. #LP-0200) at final concentrations ranging from 0.004 μM to 25 μM. TNFα (final concentration 0.5 ng/ml) or CD40L (final concentration 30 ng/ml) in assay buffer [DMEM, 4.5 g/l glucose (Gibco, Cat. 21063-029), 10% FBS (Sigma, F4135), 1% Penicillin-Streptomycin (Gibco, Cat. 15140-122), 1% Anti-Anti (Gibco, Cat. 15240-112) and 2 mM L-glutamine (Gibco, Cat. 25030-081)] was then added to the assay plate. After a 30 minute pre-incubation at 37° C. and 5% CO2, HEK-Blue-CD40L cells (InvivoGen, Cat. Code hkb-cd40) containing a NF-κB-driven secreted alkaline phosphatase reporter gene were seeded into the assay plate at a density of 20,000 cells per well. This plate was then incubated for 18 h at 37° C. and 5% CO2. Secreted alkaline phosphatase expression was measured using QUANTI-Blue (InvivoGen, Cat. Code rep-qbl) according to manufacturer's specifications and the assay plate was read on a PerkinElmer Envision at 620 nm.
Inhibition data for the test compound over a range of concentrations was plotted as percentage inhibition of the test compound (100%=maximum inhibition). IC50 values were determined after correcting for background [(sample read−mean of low control)/(mean of high control−mean of low control)] where by the low control is DMSO without stimulation and high control is DMSO with stimulation. The IC50 is defined as the concentration of test compound which produces 50% inhibition and was quantified using the 4 parameter logistic equation to fit the data.
`Cc1ccc(C)c(N2CCCc3nc4ccc(-c5ccc(C(C)(C)O)cc5)cn4c32)c1` [Example 36, 2-(4-(1-(2,5-Dimethylphenyl)-1,2,3,4-tetrahydroimidazo[1,2-a:5,4-b′]dipyridin-8-yl)phenyl)propan-2-ol] had a half-inhibitory concentration (IC50) of 1000 to 10000 nM.

As for `COc1ccc(-c2ccc3nc4c(n3c2)N(c2ccccc2OC(F)(F)F)CCC4)cn1` [Example 10, 8-(6-Methoxypyridin-3-yl)-1-(2-(trifluoromethoxy)phenyl)-1,2,3,4-tetrahydroimidazo[1,2-a:5,4-b′]dipyridine], the IC50 was less than 1000 nM.

The molecule `COc1ccc(-c2ccc3nc4c(n3c2)N(c2cccc(C)c2C)CCC4)cn1` [Example 24, 1-(2,3-Dimethylphenyl)-8-(6-methoxypyridin-3-yl)-1,2,3,4-tetrahydroimidazo [1,2-a:5,4-b′]dipyridine] yielded an IC50 of 1000 to 10000 nM.

`COc1ccc(-c2ccc3nc4c(n3c2)N(c2cc(C)ccc2OC(F)F)CCC4)cn1` [Example 20, 1-(2-(Difluoromethoxy)-5-methylphenyl)-8-(6-methoxypyridin-3-yl)-1,2,3,4-tetrahydroimidazo[1,2-a:5,4-b′]dipyridine] came in with a concentration for half-maximal inhibition (IC50) of less than 1000 nM.

`Cc1ccc(C)c(N2CCCc3nc4ccc(-c5cnc(N6CCOCC6)nc5)cn4c32)c1` [Example 14, 4-(5-(1-(2,5-Dimethylphenyl)-1,2,3,4-tetrahydroimidazo[1,2-a:5,4-b′]dipyridin-8-yl)pyrimidin-2-yl)morpholine] had an IC50 of less than 1000 nM.

For the molecule `COc1ccc(-c2ccc3nc4c(n3c2)N(c2cc(C)ccc2C)CCC4)cn1` [Example 5, 1-(2,5-Dimethylphenyl)-8-(6-methoxypyridin-3-yl)-1,2,3,4-tetrahydroimidazo [1,2-a:5,4-b′]dipyridine], the IC50 is less than 1000 nM.

Molecule `COc1ccc(-c2ccc3nc4c(n3c2)N(c2cc(C)ccc2OC)CCC4)cn1` [Example 7, 1-(2-Methoxy-5-methylphenyl)-8-(6-methoxypyridin-3-yl)-1,2,3,4-tetrahydroimidazo [1,2-a:5,4-b′]dipyridine] gave a half-maximal inhibitory concentration (IC50) of less than 1000 nM.

In the case of `COc1ccc(-c2ccc3nc4c(n3c2)N(c2ccc(F)cc2C)CCC4)cn1` [Example 26, 1-(4-Fluoro-2-methylphenyl)-8-(6-methoxypyridin-3-yl)-1,2,3,4-tetrahydroimidazo [1,2-a:5,4-b′]dipyridine], the IC50 was less than 1000 nM.

As for `COc1ccc(-c2cn3c4c(nc3cc2C)CCCN4c2cc(C)ccc2C)cn1` [Example 1, 1-(2,5-Dimethylphenyl)-8-(6-methoxypyridin-3-yl)-7-methyl-1,2,3,4-tetrahydroimidazo [1,2-a:5,4-b′]dipyridine], the concentration for half-maximal inhibition (IC50) was in the range of 1000 to 10000 nM.

For the molecule `Cn1cc(-c2ccc3nc4c(n3c2)N(c2ccccc2OC(F)F)CCC4)cn1` [Example 13, 1-(2-(Difluoromethoxy)phenyl)-8-(1-methyl-1H-pyrazol-4-yl)-1,2,3,4-tetrahydroimidazo[1,2-a:5,4-b′]dipyridine], the IC50 is less than 1000 nM.

On to `CC(C)(O)c1ncc(-c2cn3c4c(nc3cc2Cl)CCCN4c2ccccc2)cn1` [Example 21, 2-(5-(7-Chloro-1-phenyl-1,2,3,4-tetrahydroimidazo[1,2-a:5,4-b′]dipyridin-8-yl)pyrimidin-2-yl)propan-2-ol], for which the IC50 was less than 1000 nM.

Turning to `Cc1ccc(OC(F)F)c(N2CCCc3nc4ccc(-c5cnc(N6CCOCC6)nc5)cn4c32)c1` [Example 19, 4-(5-(1-(2-(Difluoromethoxy)-5-methylphenyl)-1,2,3,4-tetrahydroimidazo [1,2-a:5,4-b′]dipyridin-8-yl)pyrimidin-2-yl)morpholine], the concentration for half-maximal inhibition (IC50) is less than 1000 nM.

As to `Cc1ccc(C)c(N2CCCc3nc4ccc(-c5ccc(-c6nnc(C)o6)cc5)cn4c32)c1` [Example 16, 2-(4-(1-(2,5-Dimethylphenyl)-1,2,3,4-tetrahydroimidazo[1,2-a:5,4-b′]dipyridin-8-yl)phenyl)-5-methyl-1,3,4-oxadiazole], the IC50 was less than 1000 nM.

As to `COc1ccc(-c2ccc3nc4c(n3c2)N(c2ccccc2OC(F)F)CCC4)cn1` [Example 6, 1-(2-(Difluoromethoxy)phenyl)-8-(6-methoxypyridin-3-yl)-1,2,3,4-tetrahydroimidazo[1,2-a:5,4-b′]dipyridine], the IC50 is less than 1000 nM.

On to `COc1ccc(-c2ccc3nc4c(n3c2)N(c2ccccc2C)CCC4)cn1` [Example 9, 8-(6-Methoxypyridin-3-yl)-1-(o-tolyl)-1,2,3,4-tetrahydroimidazo[1,2-a:5,4-b′]dipyridine], for which the IC50 is less than 1000 nM.

Consider `CC(C)(O)c1ncc(-c2ccc3nc4c(n3c2)N(c2ccccc2OC(F)F)CCC4)cn1` [Example 34, 2-(5-(1-(2-(Difluoromethoxy)phenyl)-1,2,3,4-tetrahydroimidazo[1,2-a:5,4-b′]dipyridin-8-yl)pyrimidin-2-yl)propan-2-ol], for which the IC50 is less than 1000 nM.

The molecule `Cc1ccc(C)c(N2CCCc3nc4cc(C)c(-c5cnn(C)c5)cn4c32)c1` [Example 3, 1-(2,5-Dimethylphenyl)-7-methyl-8-(1-methyl-1H-pyrazol-4-yl)-1,2,3,4-tetrahydroimidazo[1,2-a:5,4-b′]dipyridine] displayed an IC50 of less than 1000 nM.

`Cc1nnc(-c2ccc(-c3ccc4nc5c(n4c3)N(c3ccccc3OC(F)F)CCC5)cc2)o1` [Example 17, 2-(4-(1-(2-(Difluoromethoxy)phenyl)-1,2,3,4-tetrahydroimidazo[1,2-a:5,4-b′]dipyridin-8-yl)phenyl)-5-methyl-1,3,4-oxadiazole]: the IC50 was less than 1000 nM.

`Cc1ccc(C)c(N2CCCc3nc4ccc(-c5cnc(C(C)(C)O)nc5)cn4c32)c1` [Example 18, 2-(5-(1-(2,5-Dimethylphenyl)-1,2,3,4-tetrahydroimidazo[1,2-a:5,4-b′]dipyridin-8-yl)pyrimidin-2-yl)propan-2-ol] had a half-maximal inhibitory concentration (IC50) of less than 1000 nM.

Turning to `COc1ccc(-c2cn3c4c(nc3cc2Cl)CCCN4c2ccccc2OC(F)F)cn1` [Example 22, 7-Chloro-1-(2-(difluoromethoxy)phenyl)-8-(6-methoxypyridin-3-yl)-1,2,3,4-tetrahydroimidazo[1,2-a:5,4-b′]dipyridine], the half-inhibitory concentration (IC50) lay within 1000 to 10000 nM.

`COc1ccc(-c2ccc3nc4c(n3c2)N(c2ccc(C)cc2C)CCC4)cn1` [Example 30, 1-(2,4-Dimethylphenyl)-8-(6-methoxypyridin-3-yl)-1,2,3,4-tetrahydroimidazo[1,2-a:5,4-b′]dipyridine] returned an IC50 of 1000 to 10000 nM.

For the molecule `FC(F)Oc1ccccc1N1CCCc2nc3ccc(-c4cnc(N5CCOCC5)nc4)cn3c21` [Example 15, 4-(5-(1-(2-(Difluoromethoxy)phenyl)-1,2,3,4-tetrahydroimidazo[1,2-a:5,4-b′]dipyridin-8-yl)pyrimidin-2-yl)morpholine], the IC50 was less than 1000 nM.

Take `Cc1cc2nc3c(n2cc1-c1cnn(C)c1)N(c1ccccc1OC(F)F)CCC3` [Example 4, 1-(2-(Difluoromethoxy)phenyl)-7-methyl-8-(1-methyl-1H-pyrazol-4-yl)-1,2,3,4-tetrahydroimidazo[1,2-a:5,4-b′]dipyridine]: the IC50 lay within 1000 to 10000 nM.

In turn, `COc1ccc(-c2ccc3nc4c(n3c2)N(c2ccccc2Cl)CCC4)cn1` [Example 31, 1-(2-Chlorophenyl)-8-(6-methoxypyridin-3-yl)-1,2,3,4-tetrahydroimidazo[1,2-a:5,4-b′]dipyridine] showed an IC50 of less than 1000 nM.

For the molecule `COc1ccc(-c2ccc3nc4c(n3c2)N(c2nccc3ccccc23)CCC4)cn1` [Example 8, 1-(Isoquinolin-1-yl)-8-(6-methoxypyridin-3-yl)-1,2,3,4-tetrahydroimidazo [1,2-a:5,4-b′]dipyridine], the IC50 is 1000 to 10000 nM.
